Data reported in patent US20130065883A1 (Centro Nacional de Investigaceiones Oncologicas (CNIO), priority 2010, published 2013).
Like-named read-outs stand apart in the source and are kept apart here.

Assays:
[1] = tested on: tumor cell lines; test: Combination assay (MTT in vitro cell proliferation, combination index); assay type: cell-based; settings: for EC50: read-out: Pim Inh EC50
[2] = Metabolic stability assay; assay type: in vitro ADME; settings: percentage metabolic stability in human liver microsomes
Procedure: The metabolic stability assay was performed in Wuxi. 1 μM, 15 min. The kinase selectivity testing was performed in ProQinase GmbH, Germany.

[3] = tested on: H1299 cells overexpressing Pim1 (H1299Pim1); test: BAD S112 phosphorylation inhibition assay (In Cell ELISA); assay type: cell-based; settings: Homo sapiens, NCI-H1299, inhibition of Bad-phosphorylation, read-out: Cell assay BAD_P H1299 PIM1
[4] = tested on: panel of 24 kinases; test: Kinase selectivity testing (percentage inhibition of 24 kinases at 1 μM); assay type: biochemical; settings: proquinase

Question: For COc1cc(NCC2CCNCC2)nc2c1nnn2-c1cccc(OC(F)(F)F)c1 [2-92], which Synergy ([1]; A549, combined with GDC-0941) is on record?
Answer: +++ (0.1 < CI < 0.3 (+++))

Question: What about the Synergy ([1]; DU145, combined with Taxotere) of the same compound?
Answer: ++ (0.3 < CI < 0.7 (++))

Question: What about the EC50 ([1]; HTC116, colon carcinoma) of the same compound?
Answer: 10000 nM

Question: And the Synergy ([1]; HTC116, combined with PD-0325901)?
Answer: +++ (0.1 < CI < 0.3 (+++))

Question: And the Synergy ([1]; HTC116, combined with lapatinib)?
Answer: +++ (0.1 < CI < 0.3 (+++))

Question: What about the EC50 ([1]; Homo sapiens, SK-MEL19, SKMel19, melanoma) of the same compound?
Answer: 1000 nM

Question: And the Synergy ([1]; MV4:11, combined with lapatinib)?
Answer: ++ (0.3 < CI < 0.7 (++))

Question: What about the Synergy ([1]; MiaPaca-2, combined with Gemcitabine) of the same compound?
Answer: + (0.7 < CI < 1.2 (+))

Question: What about the Synergy ([1]; NCIH1975, combined with GDC-0941) of the same compound?
Answer: ++ (0.3 < CI < 0.7 (++))

Question: And the Synergy ([1]; PC3, combined with GDC-0941)?
Answer: + (0.7 < CI < 1.2 (+))

Question: And the Synergy ([1]; SKMel19, combined with GDC-0879)?
Answer: +++ (0.1 < CI < 0.3 (+++))

Question: What about the Synergy ([1]; SKMel19, combined with GDC-0941) of the same compound?
Answer: ++ (0.3 < CI < 0.7 (++))

Question: And the “Stability in HLM” value [2]?
Answer: 96.65%

Question: And the EC50 [3]?
Answer: 136 nM

Question: And the “% inhibiton at 1 uM AKT2” value ([4]; AKT2, 1 uM)?
Answer: 0%

Question: And the “% inhibiton at 1 uM B_RAF V600E” value ([4]; B_RAF V600E, 1 uM)?
Answer: 1%

Question: What about the “% inhibiton at 1 uM CDK8 CYCC” value ([4]; CDK8 CYCC, 1 uM) of the same compound?
Answer: 0%

Question: And the “% inhibiton at 1 uM CHK1” value ([4]; CHK1, 1 uM)?
Answer: 0%

Question: And the “% inhibiton at 1 uM CK1 Alpha 1” value ([4]; CK1 Alpha 1, 1 uM)?
Answer: 4%

Question: And the “% inhibiton at 1 uM DYRK 1A” value ([4]; DYRK 1A, 1 uM)?
Answer: 0%

Question: What about the “% inhibiton at 1 uM EGF_R” value ([4]; EGF_R, 1 uM) of the same compound?
Answer: 1%

Question: What about the “% inhibiton at 1 uM FAK” value ([4]; FAK, 1 uM) of the same compound?
Answer: 0%

Question: And the “% inhibiton at 1 uM FGFR1” value ([4]; FGFR1, 1 uM)?
Answer: 0%

Question: What about the “% inhibiton at 1 uM IGF1_R” value ([4]; IGF1_R, 1 uM) of the same compound?
Answer: 5%

Question: What about the “% inhibiton at 1 uM IKK BETA” value ([4]; IKK BETA, 1 uM) of the same compound?
Answer: 0%

Question: What about the “% inhibiton at 1 uM INS_R” value ([4]; INS_R, 1 uM) of the same compound?
Answer: 0%

Question: What about the “% inhibiton at 1 uM JAK2” value ([4]; JAK2, 1 uM) of the same compound?
Answer: 2%

Question: What about the “% inhibiton at 1 uM KIT” value ([4]; KIT, 1 uM) of the same compound?
Answer: 2%

Question: And the “% inhibiton at 1 uM MEK1” value ([4]; MEK1, 1 uM)?
Answer: 1%

Question: And the “% inhibiton at 1 uM MET” value ([4]; MET, 1 uM)?
Answer: 0%

Question: What about the “% inhibiton at 1 uM PAK1” value ([4]; PAK1, 1 uM) of the same compound?
Answer: 8%

Question: What about the “% inhibiton at 1 uM PDGFR Alpha” value ([4]; PDGFR Alpha, 1 uM) of the same compound?
Answer: 0%

Question: What about the “% inhibiton at 1 uM PDK1” value ([4]; PDK1, 1 uM) of the same compound?
Answer: 0%

Question: And the “% inhibiton at 1 uM PLK1” value ([4]; PLK1, 1 uM)?
Answer: 0%

Question: What about the “% inhibiton at 1 uM SGK1” value ([4]; SGK1, 1 uM) of the same compound?
Answer: 6%

Question: And the “% inhibiton at 1 uM SRC” value ([4]; SRC, 1 uM)?
Answer: 8%
